In ChEMBL document CHEMBL1150976, “The selectivity of protein kinase inhibitors: a further update” (Biochem J, 2007):

Tests used:
[1] = target: Serine/threonine-protein kinase PAK 6 (Homo sapiens) (UniProt Q9NQU5); experiment: Percentage PAK6 activity remaining in the presence of 0.1uM inhibitor
[2] = target: Serine/threonine-protein kinase pim-2 (Homo sapiens, UniProt Q9P1W9); experiment: Percentage PIM2 activity remaining in the presence of 0.1uM inhibitor
[3] = target: Serine/threonine-protein kinase pim-3 (Homo sapiens, UniProt Q86V86); experiment: Percentage PIM3 activity remaining in the presence of 0.1uM inhibitor
[4] = target: T1, Serine/threonine-protein kinase Chk1 (Homo sapiens) (UniProt O14757); experiment: Percentage CHK1 activity remaining in the presence of 0.1uM inhibitor
T1 sequence (whole entry): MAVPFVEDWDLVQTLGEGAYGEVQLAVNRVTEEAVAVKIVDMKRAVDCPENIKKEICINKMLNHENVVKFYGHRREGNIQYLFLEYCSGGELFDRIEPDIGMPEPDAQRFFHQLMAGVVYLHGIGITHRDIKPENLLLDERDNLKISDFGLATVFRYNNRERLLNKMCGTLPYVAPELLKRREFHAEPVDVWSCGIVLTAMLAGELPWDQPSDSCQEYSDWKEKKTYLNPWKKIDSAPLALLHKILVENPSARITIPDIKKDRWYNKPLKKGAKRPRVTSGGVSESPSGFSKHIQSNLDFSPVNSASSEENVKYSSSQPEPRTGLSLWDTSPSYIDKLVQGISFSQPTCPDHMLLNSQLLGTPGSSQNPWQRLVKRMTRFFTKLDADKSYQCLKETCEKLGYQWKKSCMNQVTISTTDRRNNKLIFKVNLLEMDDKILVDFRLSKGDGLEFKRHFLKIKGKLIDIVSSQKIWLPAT

[5] = target: Dual specificity tyrosine-phosphorylation-regulated kinase 1A (Homo sapiens) (UniProt Q13627); experiment: Percentage DYRK1A activity remaining in the presence of 0.1uM inhibitor
[6] = target: T2, Eukaryotic elongation factor 2 kinase (Homo sapiens) (UniProt O00418); experiment: Percentage EF2K activity remaining in the presence of 0.1uM inhibitor
T2 sequence (whole entry): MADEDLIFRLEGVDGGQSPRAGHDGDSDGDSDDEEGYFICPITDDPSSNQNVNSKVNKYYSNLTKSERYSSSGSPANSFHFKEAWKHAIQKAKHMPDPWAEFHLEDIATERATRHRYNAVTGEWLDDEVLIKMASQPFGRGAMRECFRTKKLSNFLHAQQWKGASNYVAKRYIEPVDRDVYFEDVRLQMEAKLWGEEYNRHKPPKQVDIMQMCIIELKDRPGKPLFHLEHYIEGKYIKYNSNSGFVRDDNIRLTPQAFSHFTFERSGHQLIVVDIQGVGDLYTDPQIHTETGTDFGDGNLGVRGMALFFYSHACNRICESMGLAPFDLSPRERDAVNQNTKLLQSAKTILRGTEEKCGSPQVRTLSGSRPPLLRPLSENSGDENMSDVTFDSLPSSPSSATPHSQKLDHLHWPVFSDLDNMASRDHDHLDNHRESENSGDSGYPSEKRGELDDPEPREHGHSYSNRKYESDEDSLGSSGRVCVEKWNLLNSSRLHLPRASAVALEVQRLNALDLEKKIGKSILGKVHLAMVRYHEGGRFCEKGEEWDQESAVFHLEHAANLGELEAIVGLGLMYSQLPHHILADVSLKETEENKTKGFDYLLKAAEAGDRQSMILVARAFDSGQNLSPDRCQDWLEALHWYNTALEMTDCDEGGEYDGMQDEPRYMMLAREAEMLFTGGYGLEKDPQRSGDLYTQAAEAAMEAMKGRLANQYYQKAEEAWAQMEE

[7] = target: T3, Serine/threonine-protein kinase Nek2 (Homo sapiens) (UniProt P51955); experiment: Percentage NEK2a activity remaining in the presence of 0.1uM inhibitor
T3 sequence (whole entry): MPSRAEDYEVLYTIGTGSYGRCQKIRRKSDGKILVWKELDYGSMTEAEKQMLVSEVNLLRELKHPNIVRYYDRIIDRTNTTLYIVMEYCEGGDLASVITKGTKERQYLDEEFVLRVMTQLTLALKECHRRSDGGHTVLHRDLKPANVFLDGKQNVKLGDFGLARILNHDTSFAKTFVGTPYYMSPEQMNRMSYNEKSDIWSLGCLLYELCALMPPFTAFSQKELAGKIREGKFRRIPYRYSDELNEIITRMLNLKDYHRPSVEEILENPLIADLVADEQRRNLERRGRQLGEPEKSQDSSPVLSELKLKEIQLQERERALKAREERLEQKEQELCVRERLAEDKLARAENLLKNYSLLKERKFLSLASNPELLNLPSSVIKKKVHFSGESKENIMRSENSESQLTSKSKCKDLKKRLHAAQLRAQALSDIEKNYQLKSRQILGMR

[8] = target: MAP kinase-activated protein kinase 2 (Homo sapiens) (UniProt P49137); experiment: Percentage MAPKAPK2 activity remaining in the presence of 0.1uM inhibitor
Sequence of MAP kinase-activated protein kinase 2 (Homo sapiens) (P49137 whole entry, looked up): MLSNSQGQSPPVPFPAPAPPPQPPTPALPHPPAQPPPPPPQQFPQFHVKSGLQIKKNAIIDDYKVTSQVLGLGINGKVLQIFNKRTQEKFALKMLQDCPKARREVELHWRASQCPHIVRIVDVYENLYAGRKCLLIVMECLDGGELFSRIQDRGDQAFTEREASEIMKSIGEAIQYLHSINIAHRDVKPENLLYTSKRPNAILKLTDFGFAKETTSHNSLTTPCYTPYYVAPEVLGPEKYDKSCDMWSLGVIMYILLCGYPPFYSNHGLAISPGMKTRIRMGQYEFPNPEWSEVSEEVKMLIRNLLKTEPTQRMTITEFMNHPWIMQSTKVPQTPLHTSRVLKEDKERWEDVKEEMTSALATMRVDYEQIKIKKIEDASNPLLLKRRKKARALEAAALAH

[9] = target: Proto-oncogene tyrosine-protein kinase Src (Gallus gallus) (UniProt P00523); experiment: Percentage Src activity remaining in the presence of 0.1uM inhibitor
[10] = target: MAP kinase-interacting serine/threonine-protein kinase 1 (Homo sapiens) (UniProt Q9BUB5); experiment: Percentage MNK1 activity remaining in the presence of 0.1uM inhibitor
Sequence of MAP kinase-interacting serine/threonine-protein kinase 1 (Homo sapiens) (Q9BUB5 whole entry, looked up): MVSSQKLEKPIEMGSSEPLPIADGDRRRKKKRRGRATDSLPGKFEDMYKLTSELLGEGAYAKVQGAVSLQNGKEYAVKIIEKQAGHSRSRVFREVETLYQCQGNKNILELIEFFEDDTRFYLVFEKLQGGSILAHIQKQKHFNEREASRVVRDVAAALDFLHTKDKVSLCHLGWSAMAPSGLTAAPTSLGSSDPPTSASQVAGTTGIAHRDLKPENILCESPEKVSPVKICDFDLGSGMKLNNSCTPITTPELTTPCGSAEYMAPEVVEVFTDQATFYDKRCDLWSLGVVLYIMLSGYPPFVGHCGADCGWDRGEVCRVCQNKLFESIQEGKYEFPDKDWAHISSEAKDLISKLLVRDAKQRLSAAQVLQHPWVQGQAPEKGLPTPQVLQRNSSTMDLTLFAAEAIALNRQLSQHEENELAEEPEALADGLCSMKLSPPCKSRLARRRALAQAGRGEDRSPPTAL

Aurora kinase B = Aurora kinase B (Homo sapiens, UniProt Q96GD4); experiment: Percentage Aurora B activity remaining in the presence of 0.1uM inhibitor
Sequence of Aurora kinase B (Q96GD4 whole entry): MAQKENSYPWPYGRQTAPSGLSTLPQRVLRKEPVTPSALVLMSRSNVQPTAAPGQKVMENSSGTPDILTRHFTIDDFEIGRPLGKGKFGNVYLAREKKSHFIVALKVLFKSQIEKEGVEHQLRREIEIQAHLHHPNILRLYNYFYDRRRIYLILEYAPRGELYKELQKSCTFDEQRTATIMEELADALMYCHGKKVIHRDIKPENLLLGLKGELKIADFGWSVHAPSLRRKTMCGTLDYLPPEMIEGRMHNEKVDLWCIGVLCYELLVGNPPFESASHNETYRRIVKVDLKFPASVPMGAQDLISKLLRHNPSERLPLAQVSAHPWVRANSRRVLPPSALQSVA

[11] = target: Serine/threonine-protein kinase PLK1 (Homo sapiens, UniProt P53350); experiment: Percentage PLK1 activity remaining in the presence of 0.1uM inhibitor
Sequence of Serine/threonine-protein kinase PLK1 (P53350 whole entry): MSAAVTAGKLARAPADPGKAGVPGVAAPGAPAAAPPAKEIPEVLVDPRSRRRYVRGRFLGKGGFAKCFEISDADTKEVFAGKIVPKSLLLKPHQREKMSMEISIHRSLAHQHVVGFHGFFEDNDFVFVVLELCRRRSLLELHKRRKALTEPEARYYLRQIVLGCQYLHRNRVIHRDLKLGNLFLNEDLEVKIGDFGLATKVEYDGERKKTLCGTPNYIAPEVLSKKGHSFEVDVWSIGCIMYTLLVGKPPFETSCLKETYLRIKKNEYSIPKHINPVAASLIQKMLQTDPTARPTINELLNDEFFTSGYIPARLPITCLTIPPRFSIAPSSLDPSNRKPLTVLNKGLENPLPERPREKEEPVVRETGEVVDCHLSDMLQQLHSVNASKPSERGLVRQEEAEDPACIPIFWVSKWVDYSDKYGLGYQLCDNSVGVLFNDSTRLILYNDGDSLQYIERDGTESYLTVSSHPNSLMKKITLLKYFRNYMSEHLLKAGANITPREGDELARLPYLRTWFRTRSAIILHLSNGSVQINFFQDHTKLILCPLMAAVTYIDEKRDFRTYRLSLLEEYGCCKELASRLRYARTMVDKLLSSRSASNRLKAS

[12] = target: Serine/threonine-protein kinase PAK 5 (Homo sapiens) (UniProt Q9P286); experiment: Percentage PAK5 activity remaining in the presence of 0.1uM inhibitor
Sequence of Serine/threonine-protein kinase PAK 5 (Homo sapiens) (Q9P286 whole entry, looked up): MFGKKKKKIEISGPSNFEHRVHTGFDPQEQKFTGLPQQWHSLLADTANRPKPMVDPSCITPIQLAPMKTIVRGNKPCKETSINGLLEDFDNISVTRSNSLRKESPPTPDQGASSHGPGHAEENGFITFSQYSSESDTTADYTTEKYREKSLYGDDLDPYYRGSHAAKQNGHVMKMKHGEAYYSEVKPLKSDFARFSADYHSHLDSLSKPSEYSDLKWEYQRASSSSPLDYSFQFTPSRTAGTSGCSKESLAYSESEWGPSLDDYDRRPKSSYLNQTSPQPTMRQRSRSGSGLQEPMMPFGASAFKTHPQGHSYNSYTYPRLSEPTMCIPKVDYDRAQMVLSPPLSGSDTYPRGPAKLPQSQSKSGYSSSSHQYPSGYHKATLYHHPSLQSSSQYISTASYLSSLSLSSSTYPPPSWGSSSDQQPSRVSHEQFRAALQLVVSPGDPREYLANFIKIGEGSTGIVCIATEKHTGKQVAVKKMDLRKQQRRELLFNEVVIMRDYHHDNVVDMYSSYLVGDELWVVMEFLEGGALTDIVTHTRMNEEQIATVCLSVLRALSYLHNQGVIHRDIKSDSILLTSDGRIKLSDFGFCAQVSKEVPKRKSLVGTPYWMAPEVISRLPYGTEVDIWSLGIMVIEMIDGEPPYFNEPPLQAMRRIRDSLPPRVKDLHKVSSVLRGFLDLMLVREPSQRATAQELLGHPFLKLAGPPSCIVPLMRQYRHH

[13] = target: cAMP-dependent protein kinase catalytic subunit alpha (Homo sapiens, UniProt P17612); experiment: Percentage PKA activity remaining in the presence of 0.1uM inhibitor
[14] = target: MAP kinase-activated protein kinase 3 (Homo sapiens) (UniProt Q16644); experiment: Percentage MAPKAPK3 activity remaining in the presence of 0.1uM inhibitor
Sequence of MAP kinase-activated protein kinase 3 (Homo sapiens) (Q16644 whole entry, looked up): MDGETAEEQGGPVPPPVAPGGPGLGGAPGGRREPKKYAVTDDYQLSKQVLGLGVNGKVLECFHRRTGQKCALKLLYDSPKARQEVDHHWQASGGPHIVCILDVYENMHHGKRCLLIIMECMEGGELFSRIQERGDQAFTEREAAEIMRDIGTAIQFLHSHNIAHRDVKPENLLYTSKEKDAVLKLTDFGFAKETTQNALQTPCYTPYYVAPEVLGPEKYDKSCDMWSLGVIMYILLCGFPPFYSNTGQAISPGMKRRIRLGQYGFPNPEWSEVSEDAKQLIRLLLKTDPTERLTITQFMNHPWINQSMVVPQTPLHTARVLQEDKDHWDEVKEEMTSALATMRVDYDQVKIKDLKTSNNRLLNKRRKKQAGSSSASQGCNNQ

[15] = target: Homeodomain-interacting protein kinase 2 (Homo sapiens) (UniProt Q9H2X6); experiment: Percentage HIPK2 activity remaining in the presence of 0.1uM inhibitor

Sequence of Serine/threonine-protein kinase pim-2 (Q9P1W9 whole entry, looked up): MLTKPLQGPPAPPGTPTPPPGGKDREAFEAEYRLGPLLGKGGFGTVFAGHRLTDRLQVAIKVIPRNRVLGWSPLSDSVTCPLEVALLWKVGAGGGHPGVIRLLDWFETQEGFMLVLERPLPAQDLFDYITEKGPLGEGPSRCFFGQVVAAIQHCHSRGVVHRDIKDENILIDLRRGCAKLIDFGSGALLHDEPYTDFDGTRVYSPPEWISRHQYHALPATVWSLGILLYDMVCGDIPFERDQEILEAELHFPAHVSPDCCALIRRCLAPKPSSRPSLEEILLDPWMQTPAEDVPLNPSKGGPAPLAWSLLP
Sequence of Serine/threonine-protein kinase PAK 6 (Homo sapiens) (Q9NQU5 whole entry, looked up): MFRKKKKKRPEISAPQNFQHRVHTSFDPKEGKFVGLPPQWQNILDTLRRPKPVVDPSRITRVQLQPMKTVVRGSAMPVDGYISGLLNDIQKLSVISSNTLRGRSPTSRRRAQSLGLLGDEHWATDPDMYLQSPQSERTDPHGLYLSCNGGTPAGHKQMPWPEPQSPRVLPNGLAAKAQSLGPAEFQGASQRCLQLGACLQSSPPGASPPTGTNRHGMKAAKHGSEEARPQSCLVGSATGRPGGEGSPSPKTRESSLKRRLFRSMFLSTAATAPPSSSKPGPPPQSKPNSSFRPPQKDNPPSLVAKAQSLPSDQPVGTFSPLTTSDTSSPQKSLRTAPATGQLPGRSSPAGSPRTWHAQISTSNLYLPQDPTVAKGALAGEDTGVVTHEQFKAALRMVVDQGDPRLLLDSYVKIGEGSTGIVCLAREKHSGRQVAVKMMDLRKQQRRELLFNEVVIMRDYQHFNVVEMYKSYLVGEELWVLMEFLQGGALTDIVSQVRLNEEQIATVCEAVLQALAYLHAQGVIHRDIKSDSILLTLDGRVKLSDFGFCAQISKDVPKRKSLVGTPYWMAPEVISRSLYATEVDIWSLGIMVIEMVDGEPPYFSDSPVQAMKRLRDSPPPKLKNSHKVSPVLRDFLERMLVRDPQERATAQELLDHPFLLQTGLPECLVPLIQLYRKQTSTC

| SMILES | Activity [1] [%] | Activity [2] [%] | Activity [3] [%] | Activity [4] [%] | Activity [5] [%] | Activity [6] [%] | Activity [7] [%] | Activity [8] [%] | Activity [10] [%] | Activity (Aurora kinase B) [%] | Activity [11] [%] | Activity [12] [%] | Activity [13] [%] | Activity [14] [%] | Activity ([3]; filed as antagonist) [%] | Activity ([5]; filed as antagonist) [%] | Activity [9] [%] | Activity [15] [%] | Activity (Aurora kinase B; filed as antagonist) [%] | Activity ([2]; filed as antagonist) [%] | further results |
| --- | --- | --- | --- | --- | --- | --- | --- | --- | --- | --- | --- | --- | --- | --- | --- | --- | --- | --- | --- | --- | --- |
| CC(C)[C@H](CO)Nc1nc(Nc2cccc(Cl)c2)c2ncn(C(C)C)c2n1 [PURVALANOLA] | 67 | 96 | 91 | 95 | 88 | 95 | 95 | 106 | 92 | 89 | 81 | 53 | 79 | 88 |  |  |  |  |  |  | Activity ([9]; filed as antagonist): 14% |
| Cn1c2ccccc2c2c3c(c4c5ccccc5n(CCC#N)c4c21)CNC3=O |  |  |  |  |  | 100 | 87 | 118 | 67 |  | 80 |  |  | 95 | 7 | 30 | 65 | 63 | 17 |  | Activity ([1]; filed as antagonist): 6%; Activity ([4]; filed as antagonist): 1%; Activity ([12]; filed as antagonist): 6%; Activity ([13]; filed as antagonist): 50% |
| Cn1cc(C2=C(c3cn(CCCSC(=N)N)c4ccccc34)C(=O)NC2=O)c2ccccc21 | 76 |  |  | 59 |  | 101 | 84 | 90 | 95 | 80 | 82 | 79 | 51 | 90 | 16 | 31 | 91 | 88 |  | 30 |  |
| O=C(NCCCNc1nc(Nc2cccc(NC(=O)N3CCCC3)c2)ncc1I)c1cccs1 | 85 | 92 | 63 |  | 83 | 93 | 95 | 108 |  |  | 92 | 81 | 72 | 102 |  |  | 77 | 101 | 3 |  | Activity ([4]; filed as antagonist): 46%; Activity ([10]; filed as antagonist): 37% |
| CN(C)C[C@@H]1CCn2cc(c3ccccc32)C2=C(C(=O)NC2=O)c2cn(c3ccccc23)CCO1 | 81 |  |  | 71 | 74 | 90 | 91 | 114 | 94 | 65 | 85 | 79 | 59 | 90 | 5 |  | 97 | 63 |  | 41 |  |
| CC(C)CCN1c2nc(Nc3cc(F)c(O)c(F)c3)ncc2N(C)C(=O)C1C (stereo not given) | 102 | 100 | 65 | 73 | 96 | 88 | 98 | 89 | 87 |  |  | 90 | 89 | 108 |  |  | 96 | 103 | 22 |  | Activity ([11]; filed as antagonist): 5% |
| Cc1n[nH]c2ccc(-c3cncc(OC[C@@H](N)Cc4c[nH]c5ccccc45)c3)cc12 | 87 |  |  | 99 |  | 94 | 95 | 73 | 109 | 80 | 80 | 96 |  | 96 | 13 | 7 | 86 |  |  | 15 | Activity ([15]; filed as antagonist): 24%; Activity ([13]; filed as antagonist): 3% |
